The source of these data is ChEMBL document CHEMBL4393675, “Discovery of (R)-5-((5-(1-methyl-1H-pyrazol-4-yl)-4-(methylamino)pyrimidin-2-yl)amino)-3-(piperidin-3-yloxy)picolinonitrile, a novel CHK1 inhibitor for hematologic malignancies” (Eur J Med Chem, 2019).

Common to all, as to format: ADME, organism-based
Series [1] in a line: Cmax in ICR mouse at 15 mg/kg, iv administered and measured for 1 min to 12 hrs by LC/MS/MS analysis. Also on record: dose 15 mg/kg, route intravenous. The conditions noted are these: in vivo.
A short description of series [2]: Volume of distribution at steady state in ICR mouse at 15 mg/kg, iv administered and measured for 1 min to 12 hrs by LC/MS/MS analysis. The conditions noted are these: in vivo, read-out: Vdss.
Series [3] can be described thus: MRT in ICR mouse at 15 mg/kg, iv administered and measured for 1 min to 12 hrs by LC/MS/MS analysis. To be noted: in vivo.
Series [4] is described as follows: AUC (0 to t) in ICR mouse at 15 mg/kg, iv administered and measured for 1 min to 12 hrs by LC/MS/MS analysis. The conditions noted are these: in vivo.
Series [5] in a line: AUC (0 to infinity) in ICR mouse at 15 mg/kg, iv administered and measured for 1 min to 12 hrs by LC/MS/MS analysis. Details: dose 15 mg/kg, time infinity, route intravenous. The conditions noted are these: in vivo.
Series [6] can be described thus: Half life in ICR mouse at 15 mg/kg, iv administered and measured for 1 min to 12 hrs by LC/MS/MS analysis. To be noted: in vivo.

In series [1], `CNc1nc(Nc2cnc(C#N)c(O[C@@H]3CCCNC3)c2)ncc1-c1cnn(C)c1` showed a Cmax of 849 ng/mL. The Vd in series [2] stood at 6.42 L/kg. In series [3], this compound came in with a mean residence time (MRT) of 0.8 h. The same compound came in with an AUC(0-t) in series [4] of 363 ng·h/mL. In series [5], the AUC was 370 ng·h/mL. In series [6], the half-life is 2.23 h.

In general, Cmax refers to the highest concentration seen after dosing. The MRT is the average time that molecules of a dose stay in the body. What is called AUC(0-t) is the area under the concentration-time curve up to a stated or last time point. Higher therefore signals more exposure. The term AUC denotes concentration integrated over time. Read a low AUC as low exposure. Broadly, the half-life is the time needed for the level to fall by half in the phase considered. Low readings indicate rapid decline, high ones slow decline.
